“Also recorded” adds a separate entry of the source.
Tests used:
lactate dehydrogenase B = assay: Immunocytochemistry of lactate dehydrogenase B in ARPE-19 cells; type: cell-based, Human; conditions: 2.5 mM, hypoxia
Experimental: Human retinal pigment epithelium cell line, ARPE-19, was purchased from American Type Culture Collection (Manassas, VA, USA). The ARPE-19 cells were maintained in RPMI1640 containing 10% fetal bovine serum (Life Technologies, Gaithersburg, MD, USA), 100 IU/ml penicillin, and 100 μg/ml streptomycin (Welgene, Daegu, South Korea).
ARPE-19 and SK-N-SH cells were fixed on bio-coated coverslips (BD bioscience, San Jose, CA, USA) by 4% PFA for 20 min and then incubated with the primary antibodies for 15 h. The primary antibodies were as follows: HIF-1a (1:300, BD Biosciences, San Jose, CA, USA); LDH-A (1:300, Santa Cruz Biotechnology, Santa Cruz, CA, USA); LDH-B (1:300, Santa Cruz Biotechnology, Santa Cruz, CA, USA); NF-κB (1:300, Santa Cruz Biotechnology, Santa Cruz, CA, USA); TLR-4 (1:300, Santa Cruz Biotechnology, Santa Cruz, CA, USA); apoE (1:200, Santa Cruz Biotechnology, Santa Cruz, CA, USA). After PBS wash, the cells were incubated with anti-mouse secondary biotinylated antibody (1:2000, Vector Laboratorie, Burlingame, CA, USA) and visualized with streptavidin conjugated to Fluorescein (Vector Laboratorie, Burlingame, CA, USA). […] Confocal fluorescence images were obtained with confocal laser scanning microscopy (LSCM, Nikon A1+, Tokyo, Japan) under a 60× oil immersion lens.

laser-induced AMD mice = assay: Laser-induced age-related macular degeneration (AMD) animal model; type: in vivo, C57BL/6 mice
Experimental: Six-week-old female C57BL/6 mice (20-25 g) were purchased from Orient (Charles River Korea, Seoul, Korea). All animals were maintained in a 12-hour light/dark cycle (light on, 08:00) at 22° C.-25° C. with free access to food and water. The mice were placed individually in an induction chamber, and anesthesia was induced with 2% isoflurane (HANA PHARM CO., Seoul, Korea). The lesions were induced in each eye of the mice by laser photocoagulation (SDL405-700, SD Laser, China). The laser pulses were from blue laser (wavelength, 405 nm; SD Laser). Laser parameters were 100 μm spot size, 700 mw power and 1 s exposure time. A total of 15 mice were randomized into three groups: (i) not subjected to laser induction (n=3); (ii) subjected to laser burns and injected with the vehicle buffer (n=5); and (iii) CaLa, 2 mg/kg/day (B.I.D) (n=7). CaLa treatment was started the days after laser photocoagulation and was treated subcutaneously for 14 days. (33, 34)
The histopathologic examination of retinal lesions was performed 2 weeks after 2 mg/kg of CaLa was administered subcutaneously. The enucleated eyes were fixed with 4% paraformaldehyde (PFA) for 24 h at 4° C., and eyes obtained by removing the anterior segments were washed three times in phosphate-buffered saline. The fixed flat-mounts were dehydrated in a graded series of ethanol and embedded in paraffin. […] The choroidal lesion and neovascularization on the flat-mounts were observed by confocal microscopy (Carl Zeiss, Oberkochen, Germany).
Animals. […] Six-week-old C57BL mice were purchased from Orient (Charles River Korea, Seoul, Korea). All animals were maintained in a 12-hour light/dark cycle (light on, 08:00) at 22-25° C. with free access to food and water.
Calcium lactate was purchased from Sigma Aldrich (St. Louis, MO, USA).
Animal model for ocular disease. The mice were placed individually in an induction chamber, and anesthesia was induced with 2% isoflurane (HANA PHARM CO., Seoul, Korea). The laser-induced rupture of Bruch's membrane was induced in both eyes of mice by laser photocoagulation (SDL405-700, SD Laser, China). […]

[1] = system: Indomethacin-induced Crohn's disease rats; assay: Crohn's disease model, oral Indomethacin; type: in vivo, Sprague-Dawley (SD) rats; conditions: Four-week after treatment
Experimental: Animals. […] Six-week old male Sprague-Dawley (SD) rats were obtained from Samtako Co. (Osan, Gyeonggi-do, Republic of Korea) and bred under specific-pathogen-free (SPF) conditions. All animals were maintained in a 12-hour light/dark cycle at 22-25° C. with free access to food and water.
Agents and animal model. To induce Crohn's disease and colitis, Indomethacin was purchased from Sigma Chemical (St. Louis, Missouri, USA) and was dissolved in saline. […] Two models of inflammatory bowel disease were used. Crohn's disease was induced by oral administration of Indomethacin (7 mg/kg), and colitis was induced by subcutaneous injections of Indomethacin (7 mg/kg) daily at a 24 h intervals (FIGS. 40 and 42).
Histological analysis. The fixed flat-mounts were dehydrated in a graded series of ethanol and embedded in paraffin.

[2] = system: nonalcoholic steatohepatitis (NASH) mice; assay: Liver CID (NASH) in vivo experiment, methionine-choline deficient (MCD) diet; conditions: 2 mg/kg subcutaneous B.I.D
Experimental: Female 5-week-old C57BL/6 mice were purchased form KOATEC (Pyeongtaek, South Korea) and were fed Methionine-Choline diet (MCD) for 4 weeks. When the mice weighed 15 g each, the mice were autopsied randomly to identify nonalcoholic steatohepatitis (NASH).
Mouse liver tissues (n=5) were dissected and fixed in 4% paraformaldehyde PBS solution for 15 h at 4° C. Fixed liver tissues were embedded in paraffin and sectioned at 10 μm. Slides were incubated at 55° C. for 2 h, and subsequently deparaffinized in xylene and rehydrated in a graded ethanol series and used for hematoxylin (Merck, Darmstadt, Germany) and eosin (H&E) staining (35). Paraffin sections (10 μm thick) stained with H&E were imaged using a Leica DM 1000 LED microscope (Leica Microsystems, Wetzlar, Germany).
Mouse liver tissues (n=5) were dissected and fixed in 4% paraformaldehyde PBS solution for 15 h at 4° C. Fixed tissues were embedded in paraffin and sectioned at 5 mm. Slides were incubated at 55° C. for 2 h, and subsequently deparaffinized in xylene and rehydrated in a graded ethanol series and re-fix in Bouin's solution for 1 hr at 56° C., remove the yellow color to rinse running tap water for 5-10 min and stained Biebrich scarlet-acid fuchsin solution for 5 min then in phosphomolybdic-phosphotungstic acid solution (ratio 1:1) for 30 minutes, and aniline blue solution and stain for 15 minutes. Rinse briefly in distilled water and in 1% acetic acid solution for 2-5 min. […] Mount with mounting medium. Imaged using a Leica DM 1000 LED microscope (Leica Microsystems, Wetzlar, Germany).
Animal Model for liver diseases. […] Female 5-week-old C57BL/6 mice were purchased form KOATEC (Pyeongtaek, South Korea) and were fed Methionine-Choline (MCD) diet for 4 weeks. […] Histological analysis. Mouse Liver tissues (n=5) were dissected and fixed in 4% paraformaldehyde PBS solution for 15 h at 4° C. Fixed liver tissues were embedded in paraffin and sectioned at 10 μm. Slides were incubated at 55° C. for 2 h, and subsequently deparaffinized in xylene and rehydrated in a graded ethanol series and used for hematoxylin (Merck, Darmstadt, Germany) and eosin (H&E) staining. Paraffin sections (10 μm thick) stained with H&E were imaged using a Leica DM 1000 LED microscope (Leica Microsystems, Wetzlar, Germany
Masson Trichrome Stain. Mouse Liver tissues (n=5) were dissected and fixed in 4% paraformaldehyde PBS solution for 15 h at 4° C. Fixed tissues were embedded in paraffin and sectioned at 5 mm. Slides were incubated at 55° C. for 2 h, and subsequently deparaffinized in xylene and rehydrated in a graded ethanol series and re-fix in Bouin's solution for 1 hr at 56° C., remove the yellow color to rinse running tap water at 5-10 min and stained Biebrich scarlet-acid fuchsin solution for 5 min than in phosphomolybdic-phosphotungstic acid solution (ratio 1:1) for minutes, and aniline blue solution and stain for 15 minutes. Rinse briefly in distilled water and in 1% acetic acid solution for 2-5 minutes. […] Mount with mounting medium. Imaged using a Leica DM 1000 LED microscope (Leica Microsystems, Wetzlar, Germany).
To induce NASH, mice were fed methionine-choline deficient (MCD) diet with polyunsaturated fat for 8 weeks. […] Results are MEAN±SD.

In the case of `CC(O)C(=O)[O-].CC(O)C(=O)[O-].[Ca+2]` (stereo not drawn) [calcium lactate], the “lactate dehydrogenase B, immunocytochemistry” value (lactate dehydrogenase B) is reported as “increased”, the “choroidal lesion (fluorescence, flat-mount)” value (laser-induced AMD mice; 2 mg/kg daily subcutaneous) is reported as “restored” and the “choroidal neovascularization (fluorescence, flat-mount)” value (laser-induced AMD mice; 2 mg/kg daily subcutaneous) is reported as “restored”. The “morphology of the retinal pigment epithelium (H&E)” value (laser-induced AMD mice; 2 mg/kg subcutaneous, choroidal flat-mount) was “recovered”, the “transmural inflammation and linear ulceration in the intestinal tissues” value ([1]; 2 mg/kg daily subcutaneous) was “clearly decreased” and the “morphology of intestinal tissues vs. normal control” value [1] was “morphologically recovered”. The “liver fibrosis (collagen accumulation)” value ([2]; Masson trichrome) was “not present”, the “serum alanine aminotransferase (ALT)” value ([2]; P<0.001 vs. MCD) was “significantly decreased” and the “serum aspartate aminotransferase (AST)” value ([2]; P<0.001 vs. MCD) was “significantly decreased”. The “immune cell infiltration in the liver” value ([2]; histology) was “decreased”, the “lipid droplets in the liver” value ([2]; histology) was “not observed; also recorded: not present” and the liver steatosis ([2]; histology) was “prevented”.
